{"source": "patent US20190300842A1", "about": "“SYSTEMS AND METHODS FOR CONTINUOUSLY CULTURING MICROALGAE IN MIXOTROPHIC CONDITIONS” (HELIAE DEVELOPMENT, LLC, priority 2016, published 2019)", "tested_on": "bacterial growth", "description": "An experiment was conducted to compare a semi-continuous and continuous auxostat mixotrophic microalgae operation in an open outdoor bioreactor utilizing recycled media. The outdoor bioreactor system, protocols, and type of microalgae (Chlorella) was the same as described in Example 7. Different treatments were applied to the centrate resulting from membrane filter separation. The continuous media was treated with 14 g/L acetic acid. […] The media used for semi-continuous after each partial harvest was treated with 100% filtered ozone and stabilized by refrigeration at 4° C. After the first harvest, continuous treatment started in two of the four reactors. In the time between the continuous switch and the first partial harvest, non-recycled continuous feed media was used to maintain pH on the continuous cultures through the pH auxostat.", "note": "Like-named read-outs stand apart in the source and are kept apart here."}
{"smiles": "CC(=O)O", "note": "[Acetic acid, acetic acid]", "values": [{"measurement": "bacterial growth in centrate (quantity not named in Table 4)", "setting": "acetic acid 5 g/L, 7 days", "value": 0.00}, {"measurement": "bacterial growth in centrate (quantity not named in Table 4)", "setting": "acetic acid 5 g/L, 14 days", "value": 0.00}, {"measurement": "bacterial growth in centrate (quantity not named in Table 4)", "setting": "acetic acid 5 g/L, 21 days", "value": 0.00}, {"measurement": "bacterial growth in centrate (quantity not named in Table 4)", "setting": "acetic acid 10 g/L, 7 days", "value": 0.00}, {"measurement": "bacterial growth in centrate (quantity not named in Table 4)", "setting": "acetic acid 10 g/L, 14 days", "value": 0.00}, {"measurement": "bacterial growth in centrate (quantity not named in Table 4)", "setting": "acetic acid 10 g/L, 21 days", "value": 0.00}, {"measurement": "bacterial growth in centrate (quantity not named in Table 4)", "setting": "acetic acid 15 g/L, 7 days", "value": 0.00}, {"measurement": "bacterial growth in centrate (quantity not named in Table 4)", "setting": "acetic acid 15 g/L, 14 days", "value": 0.00}, {"measurement": "bacterial growth in centrate (quantity not named in Table 4)", "setting": "acetic acid 15 g/L, 21 days", "value": 0.00}, {"measurement": "period for which the centrate could be stabilized", "setting": "addition of at least 5 g/L acetic acid", "value": "> 21", "unit": "days"}, {"measurement": "bacterial growth", "setting": "treatments of 5 g/L acetic acid and above, up to 21 days", "value": "No bacterial growth was observed"}]}
